Experimental data taken from PMC2248166, “Quantitative peptide binding motifs for 19 human and mouse MHC class I molecules derived using positional scanning combinatorial peptide libraries” (Immunome Research, 2008).
Where a SMILES comes first, the peptide text is derived from it.

Key:
Test in all cases: biochemical
Assay type in all cases: binding
HLA A*3201 = HLA A*3201 (Homo sapiens, UniProt P04439, A270S/D101S/D185E/E176V/E277Q/F133L/G103R/G107R/G231S/H175R/I121M/I218V/I322F/K168Q/L105A/L300P/L318F/M331R/P208A/P217A/Q94H/R106L/R138Q/S129P/T104I/T323A/T345S/V100E/V321M/V358M)
HLA B*1501 = HLA B*1501 (Homo sapiens, UniProt P01889, A329T/A93T/A95T/C349S/D201E/D98Y/E187L/E204Q/E69M/E70A/K202T/N87E/Q94N/R155S/R180W/S121R/S35A/S48A/V306I/V36M/Y140S/Y91S)
HLA B*1503 = HLA B*1503 (Homo sapiens, UniProt P01889, A329T/A93T/A95T/C349S/D201E/D98Y/E187L/E204Q/K202T/N87E/Q94N/R155S/R180L/S121R/S35A/V306I/V36M/Y140S/Y91S)

CC[C@H](C)[C@H](NC(=O)[C@@H](N)CCCCN)C(=O)NCC(=O)N[C@@H](CCSC)C(=O)N[C@@H](Cc1ccccc1)C(=O)N[C@@H](CC(N)=O)C(=O)N[C@@H](CC(C)C)C(=O)N[C@H](C(=O)N[C@@H](Cc1ccccc1)C(=O)O)[C@@H](C)O [3102.0341] (H-KIGMFNLTF-OH)
IC50 (HLA A*3201): 0.27 nM
IC50 (HLA B*1501): 0.21 nM
IC50 (HLA B*1503): 13 nM

CC[C@H](C)[C@H](NC(=O)[C@@H]1CCCN1C(=O)[C@@H](NC(=O)[C@H](CO)NC(=O)[C@H](CC(N)=O)NC(=O)[C@H](Cc1ccc(O)cc1)NC(=O)[C@H](CO)NC(=O)[C@H](CCC(N)=O)NC(=O)[C@@H](N)CCSC)C(C)C)C(=O)O [3102.0353] (H-MQSYNSVPI-OH)
IC50 (HLA A*3201): 2.5 nM
IC50 (HLA B*1501): 1.6 nM
IC50 (HLA B*1503): 0.73 nM

CC[C@H](C)[C@H](NC(=O)[C@@H](NC(=O)[C@@H](N)CCCCN)[C@@H](C)O)C(=O)N[C@@H](CC(N)=O)C(=O)N[C@@H](C)C(=O)N[C@@H](CC(C)C)C(=O)N[C@H](C(=O)N[C@@H](Cc1ccc(O)cc1)C(=O)N[C@@H](Cc1ccccc1)C(=O)O)C(C)C [3102.0359] (H-KTINALVYF-OH)
IC50 (HLA A*3201): 8.7 nM
IC50 (HLA B*1501): 0.37 nM
IC50 (HLA B*1503): 23 nM

CC[C@H](C)[C@H](N)C(=O)N[C@H](C(=O)N[C@H](C(=O)N1CCC[C@H]1C(=O)N[C@@H](CC(C)C)C(=O)N[C@@H](CO)C(=O)N[C@H](C(=O)N[C@@H](CO)C(=O)N[C@H](C(=O)O)[C@@H](C)CC)C(C)C)[C@@H](C)CC)[C@@H](C)CC [3102.0502] (H-IIIPLSVSI-OH)
IC50 (HLA A*3201): 70 nM
IC50 (HLA B*1501): 299 nM

CC[C@H](C)[C@H](N)C(=O)N[C@H](C(=O)N[C@@H](C)C(=O)N[C@@H](Cc1c[nH]cn1)C(=O)N[C@@H](CC(C)C)C(=O)N[C@H](C(=O)N[C@@H](CC(N)=O)C(=O)N[C@@H](CO)C(=O)N[C@@H](CC(C)C)C(=O)O)C(C)C)[C@@H](C)O [3102.0503] (H-ITAHLVNSL-OH)
IC50 (HLA A*3201): 183 nM
IC50 (HLA B*1501): 6.5 nM

CC(C)C[C@H](NC(=O)[C@@H](N)CCCNC(=N)N)C(=O)N[C@@H](Cc1ccccc1)C(=O)N[C@@H](Cc1ccc(O)cc1)C(=O)N[C@H](C(=O)N[C@@H](Cc1ccccc1)C(=O)N[C@@H](Cc1ccccc1)C(=O)N[C@@H](CO)C(=O)N[C@@H](Cc1ccc(O)cc1)C(=O)O)[C@@H](C)O [3102.0803] (H-RLFYTFFSY-OH)
IC50 (HLA A*3201): 0.19 nM
IC50 (HLA B*1501): 0.37 nM

CC[C@H](C)[C@H](NC(=O)[C@@H](N)CCC(N)=O)C(=O)N[C@H](C(=O)N[C@@H](C)C(=O)N[C@@H](Cc1ccc(O)cc1)C(=O)N[C@@H](Cc1ccccc1)C(=O)N[C@@H](CO)C(=O)N[C@@H](CCC(=O)O)C(=O)N[C@@H](Cc1ccccc1)C(=O)O)C(C)C [3102.0816] (H-QIVAYFSEF-OH)
IC50 (HLA A*3201): 70 nM
IC50 (HLA B*1501): 1.4 nM
IC50 (HLA B*1503): 7.9 nM

CC[C@H](C)[C@H](NC(=O)[C@H](CC(C)C)NC(=O)[C@@H](N)CCCNC(=N)N)C(=O)N[C@H](C(=O)N[C@@H](CC(C)C)C(=O)N[C@@H](Cc1ccccc1)C(=O)N[C@@H](CCC(=O)O)C(=O)N[C@H](C(=O)N[C@@H](Cc1ccccc1)C(=O)O)C(C)C)C(C)C [3102.0817] (H-RLIVLFEVF-OH)
IC50 (HLA A*3201): 13 nM
IC50 (HLA B*1501): 6.8 nM

CC(C)C[C@H](NC(=O)[C@@H](N)C(C)C)C(=O)N[C@@H](Cc1ccccc1)C(=O)N[C@@H](CCC(=O)O)C(=O)N[C@H](C(=O)N[C@@H](Cc1ccccc1)C(=O)N[C@H](C(=O)N[C@H](C(=O)N[C@@H](Cc1ccccc1)C(=O)O)C(C)C)C(C)C)C(C)C [3102.0818] (H-VLFEVFVVF-OH)
IC50 (HLA A*3201): 7.8 nM
IC50 (HLA B*1501): 2.9 nM
IC50 (HLA B*1503): 4.9 nM

CC[C@H](C)[C@H](NC(=O)[C@@H](N)CCSC)C(=O)N[C@@H](Cc1ccccc1)C(=O)N[C@@H](Cc1ccccc1)C(=O)N[C@@H](CC(N)=O)C(=O)N1CCC[C@H]1C(=O)N[C@H](C(=O)N[C@@H](CO)C(=O)N[C@@H](Cc1ccccc1)C(=O)O)C(C)C [3102.0841] (H-MIFFNPVSF-OH)
IC50 (HLA A*3201): 0.46 nM
IC50 (HLA B*1501): 9.4 nM

CC[C@H](C)[C@H](NC(=O)[C@H](CO)NC(=O)[C@@H](N)CCSC)C(=O)N[C@@H](CCSC)C(=O)N1CCC[C@H]1C(=O)N[C@H](C(=O)N[C@@H](CC(C)C)C(=O)N[C@@H](C)C(=O)N[C@@H](Cc1ccc(O)cc1)C(=O)O)C(C)C [3102.0858] (H-MSIMPVLAY-OH)
IC50 (HLA A*3201): 100 nM
IC50 (HLA B*1501): 1.4 nM

CC(C)C[C@H](NC(=O)[C@@H](N)CC(C)C)C(=O)N[C@@H](Cc1ccc(O)cc1)C(=O)N[C@H](C(=O)N[C@@H](C)C(=O)N[C@@H](CC(N)=O)C(=O)N[C@@H](Cc1ccccc1)C(=O)N[C@H](C(=O)N[C@@H](Cc1ccccc1)C(=O)O)[C@@H](C)O)[C@@H](C)O [3102.0873] (H-LLYTANFTF-OH)
IC50 (HLA A*3201): 6.7 nM
IC50 (HLA B*1501): 2.4 nM

CC[C@H](C)[C@H](NC(=O)[C@@H]1CCCN1C(=O)[C@H](CCC(=O)O)NC(=O)[C@H](CCC(=O)O)NC(=O)[C@H](CC(C)C)NC(=O)[C@H](Cc1ccc(O)cc1)NC(=O)[C@H](Cc1ccccc1)NC(=O)[C@H](CC(C)C)NC(=O)[C@@H](N)CCSC)C(=O)O [3102.0881] (H-MLFYLEEPI-OH)
IC50 (HLA A*3201): 2.5 nM
IC50 (HLA B*1501): 45 nM

CC[C@H](C)[C@H](NC(=O)[C@@H](NC(=O)[C@@H](N)CO)[C@@H](C)CC)C(=O)N[C@@H](CO)C(=O)N[C@@H](CC(C)C)C(=O)N[C@@H](Cc1ccccc1)C(=O)N[C@@H](Cc1ccc(O)cc1)C(=O)N[C@H](C(=O)N[C@@H](Cc1ccccc1)C(=O)O)[C@@H](C)O [3102.0919] (H-SIISLFYTF-OH)
IC50 (HLA A*3201): 5.7 nM
IC50 (HLA B*1501): 1.4 nM

CC(C)C[C@H](N)C(=O)N[C@H](C(=O)N[C@@H](Cc1ccccc1)C(=O)N[C@@H](CC(=O)O)C(=O)N[C@@H](Cc1ccc(O)cc1)C(=O)N[C@H](C(=O)N[C@H](C(=O)N[C@H](C(=O)N[C@@H](Cc1ccccc1)C(=O)O)[C@@H](C)O)C(C)C)C(C)C)[C@@H](C)O [3102.0931] (H-LTFDYVVTF-OH)
IC50 (HLA A*3201): 17 nM
IC50 (HLA B*1501): 2.5 nM

CC(C)C[C@H](NC(=O)[C@H](C)N)C(=O)N[C@@H](CC(C)C)C(=O)N[C@@H](CCC(=O)O)C(=O)N[C@@H](CC(C)C)C(=O)N[C@@H](Cc1ccccc1)C(=O)N[C@@H](CC(N)=O)C(=O)N[C@@H](C)C(=O)N[C@@H](Cc1ccccc1)C(=O)O [3102.0961] (H-ALLELFNAF-OH)
IC50 (HLA A*3201): 166 nM
IC50 (HLA B*1501): 2.5 nM
IC50 (HLA B*1503): 0.24 nM

CC[C@H](C)[C@H](NC(=O)[C@@H](NC(=O)[C@@H](N)CC(C)C)[C@@H](C)CC)C(=O)N[C@H](C(=O)N[C@@H](CCCCN)C(=O)N[C@H](C(=O)N[C@@H](Cc1ccccc1)C(=O)N[C@@H](CO)C(=O)N[C@@H](Cc1ccccc1)C(=O)O)C(C)C)[C@@H](C)O [3102.1011] (H-LIITKVFSF-OH)
IC50 (HLA A*3201): 84 nM
IC50 (HLA B*1501): 7.7 nM

CC[C@H](C)[C@H](NC(=O)[C@@H](N)CC(N)=O)C(=O)N[C@@H](Cc1ccccc1)C(=O)N1CCC[C@H]1C(=O)N[C@@H](Cc1ccccc1)C(=O)N[C@@H](Cc1ccccc1)C(=O)N[C@H](C(=O)N[C@@H](C)C(=O)N[C@@H](Cc1ccccc1)C(=O)O)C(C)C [3102.1019] (H-NIFPFFVAF-OH)
IC50 (HLA A*3201): 12 nM
IC50 (HLA B*1501): 2.2 nM

CC[C@H](C)[C@H](NC(=O)[C@@H](NC(=O)[C@@H](N)CCCCN)[C@@H](C)O)C(=O)N[C@@H](C)C(=O)N[C@@H](CCCNC(=N)N)C(=O)N[C@@H](Cc1ccccc1)C(=O)N[C@H](C(=O)N[C@@H](Cc1ccc(O)cc1)C(=O)N[C@@H](Cc1ccccc1)C(=O)O)[C@@H](C)O [3102.1031] (H-KTIARFTYF-OH)
IC50 (HLA A*3201): 95 nM
IC50 (HLA B*1501): 0.2 nM

CC(C)C[C@H](NC(=O)[C@H](Cc1ccccc1)NC(=O)[C@H](Cc1c[nH]c2ccccc12)NC(=O)[C@H](CC(C)C)NC(=O)[C@@H](N)CC(C)C)C(=O)N[C@H](C(=O)NCC(=O)N[C@H](C(=O)N[C@@H](Cc1ccccc1)C(=O)O)[C@@H](C)O)[C@@H](C)O [3102.1045] (H-LLWFLTGTF-OH)
IC50 (HLA A*3201): 93 nM
IC50 (HLA B*1501): 0.78 nM

CC[C@H](C)[C@H](NC(=O)[C@H](CC(C)C)NC(=O)[C@H](Cc1ccccc1)NC(=O)[C@@H](NC(=O)[C@H](CO)NC(=O)[C@H](Cc1ccc(O)cc1)NC(=O)[C@H](CC(C)C)NC(=O)[C@@H](N)CCCNC(=N)N)[C@@H](C)CC)C(=O)N[C@@H](Cc1ccccc1)C(=O)O [3102.1049] (H-RLYSIFLIF-OH)
IC50 (HLA A*3201): 6.9 nM
IC50 (HLA B*1501): 3.4 nM
IC50 (HLA B*1503): 0.16 nM

CC(C)C[C@H](N)C(=O)N[C@@H](CO)C(=O)N[C@@H](Cc1ccc(O)cc1)C(=O)N[C@@H](Cc1ccc(O)cc1)C(=O)N[C@H](C(=O)N[C@H](C(=O)N[C@@H](Cc1ccc(O)cc1)C(=O)N[C@H](C(=O)N[C@@H](Cc1ccccc1)C(=O)O)C(C)C)C(C)C)C(C)C [3102.1098] (H-LSYYVVYVF-OH)
IC50 (HLA A*3201): 280 nM
IC50 (HLA B*1501): 6.4 nM
IC50 (HLA B*1503): 19 nM

CC(C)C[C@H](NC(=O)[C@@H](N)CCCCN)C(=O)N[C@@H](CC(N)=O)C(=O)N[C@@H](CC(N)=O)C(=O)N[C@H](C(=O)N[C@@H](Cc1ccccc1)C(=O)N[C@@H](Cc1ccc(O)cc1)C(=O)N[C@H](C(=O)N[C@@H](Cc1ccccc1)C(=O)O)C(C)C)C(C)C [3102.1169] (H-KLNNVFYVF-OH)
IC50 (HLA A*3201): 0.52 nM
IC50 (HLA B*1501): 1.2 nM

CC[C@H](C)[C@H](NC(=O)[C@H](CO)NC(=O)[C@H](CC(N)=O)NC(=O)[C@H](CC(C)C)NC(=O)[C@@H](N)CO)C(=O)N[C@@H](Cc1ccccc1)C(=O)N[C@@H](CC(N)=O)C(=O)N[C@H](C(=O)N[C@@H](Cc1ccccc1)C(=O)O)[C@@H](C)O [3102.1238] (H-SLNSIFNTF-OH)
IC50 (HLA A*3201): 14 nM
IC50 (HLA B*1501): 2.2 nM
